# Test results as given in PubChem BioAssay (NCI).
# Values joined by “and” are separate entries in the source; they are usually repeats but may differ in a detail not shown here. Equal values may be shown once.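 Cultured in 96-well plates, cells were exposed to test compound for 48 hours across five concentrations. Here, GI50 denotes the concentration required for 50% inhibition of growth. Definition used: TGI = concentration required for complete inhibition of growth.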
# Key:
# Test in all cases: NCI tumour cell line growth inhibition, 48 h
# T-47D breast = system: T-47D breast
# A498 renal = system: A498 renal
# MDA-MB-435 = system: MDA-MB-435
# ACHN renal = system: ACHN renal
# RXF 393 renal = system: RXF 393 renal
# UACC-257 melanoma = system: UACC-257 melanoma
# HL-60(TB) leukemia = system: HL-60(TB) leukemia
# NCI-H522 lung = system: NCI-H522 lung
# CCRF-CEM leukemia = system: CCRF-CEM leukemia
# MOLT-4 leukemia = system: MOLT-4 leukemia
Structure (SMILES),GI50 (T-47D breast),TGI (T-47D breast) [µM],GI50 (A498 renal) [µM],TGI (A498 renal) [µM],GI50 (MDA-MB-435),TGI (MDA-MB-435) [µM],GI50 (ACHN renal),TGI (ACHN renal) [µM],GI50 (RXF 393 renal) [µM],TGI (RXF 393 renal),GI50 (UACC-257 melanoma) [µM],TGI (UACC-257 melanoma) [µM],GI50 (HL-60(TB) leukemia),TGI (HL-60(TB) leukemia) [µM],GI50 (NCI-H522 lung) [µM],TGI (NCI-H522 lung) [µM],GI50 (CCRF-CEM leukemia) [µM],TGI (CCRF-CEM leukemia) [µM],GI50 (MOLT-4 leukemia) [µM],TGI (MOLT-4 leukemia) [µM]
O=C(O)c1ccc([S-])cc1.[Au+].c1ccc(CN2[CH-]N(Cc3ccccc3)C(c3ccccc3)=C2c2ccccc2)cc1,0.312 µM,1.53,0.246,0.954,0.417 µM,1.46,0.332 µM,1.28,0.305,1.13 µM,0.283,1.2,0.321 µM,1.29,0.285,1.2,0.356,2.72,–,–
Cc1cccc(Cl)c1NC(=O)c1cnc(Nc2cc(N3CCOCC3)cc(N3CCOCC3)c2)s1,0.0368 µM,> 10,0.0248,0.473,4.08 µM,> 10,0.00887 µM,0.171,0.0123,0.153 µM,> 7.93,> 10,9.98 µM,> 10,0.0307,> 5.79,> 6.27,> 10,> 4.96,> 10
CCN(CC)CCCC(C)Nc1c2ccc(Cl)cc2nc2cc(OC)c(OC)cc12 (stereo not given),7.36 µM,32.5,7.07,22.2,1.65 µM,3.08,1.18 µM,2.97,1.3,2.67 µM,2.23,4.1,2.81 µM,9.31,2.35,5.76,1.52,10.3,0.594,12.6
COc1cc2c(cc1OC)-c1ccc3cc4c(cc3c1N(CCN(C)C)C2)OCO4,0.21 µM,3.48,0.723,2.53,–,17.6,0.588 µM,3.1,0.848,2.89 µM,2.43,16.5,0.25 µM,0.681,0.188,1.56,0.148,3.73,0.158,2.57
c1ccc(Nn2c(CCCCCCCCc3nnc(COc4ccccc4)n3Nc3ccccc3)nnc2COc2ccccc2)cc1,12.3 µM and 7.31 µM,> 300,37.6,> 300,5.34 µM and 11.9 µM,> 300,2.89 µM and 5.83 µM,> 300,157,98 µM and > 300 µM,–,> 86.5,2.55 µM and 9.66 µM,> 300,–,> 91.8,2.91,–,14.5,> 300
CCCCOC(=O)c1ccc(NC(=O)CCl)cc1,1.38 µM,4.01,14.1,28.6,3.5 µM,14.3,–,–,1.55,3.19 µM,3.05,8.66,2.28 µM,4.86,1.74,3.57,0.789,6.07,1.82,6.21
Clc1ccc(C(c2ccc(Cl)cc2)N2CCNCC2)cc1,–,5.25,–,4.2,–,3.63,–,5.74,–,9.75 µM,–,4.62,–,4.57,–,3.46,–,15.3,–,5
CN1C(=O)C(=Cc2cn(Cc3ccccc3)c3ccccc23)C(=O)N(C)C1=O,3.91 µM,> 75.3,0.518,1.19,> 83.3 µM,> 100,51.8 µM,> 100,23.1,> 100 µM,9.82,> 100,> 43.4 µM,> 100,> 100,> 100,> 77.6,> 100,68.3,> 100
Cn1c(/C=C(\C#N)c2cccc(C(F)(F)F)c2)nc2c(N3CCOCC3)nc(Cl)nc21,0.846 µM,3.25,1.38,2.72,1.02 µM,2.43,0.444 µM,1.57,0.613,1.93 µM,1.37,2.89,0.486 µM,2.54,0.657,2.32,0.23,0.75,0.381,1.55
COc1ccc2c(c1)c1nc3cc(C)c(C)cc3nc1n2CCN(C)C,1.2 µM,4.25,1.25,2.58,1.09 µM,2.51,0.375 µM,1.48,1.22,2.88 µM,1.26,3.17,0.992 µM,3.36,0.582,2.8,0.797,3.67,0.42,4.94
CN[C@@H]1C[C@H]2O[C@@](C)([C@@H]1OC)n1c3ccccc3c3c4c(c5c6ccccc6n2c5c31)C(=O)N[C@H]4O,0.00739 µM,0.163,0.0053,0.0203,0.0613 µM,2.56,0.036 µM,> 10,–,0.0534 µM,0.0794,2.57,–,0.52,0.103,0.878,0.0307,> 10,0.0337,> 4.75
COc1ccc2c3c(c4ccccc4cc13)C(=O)N(CCN(C)CCN)C2=O,0.0877 µM,12.6,0.393,1.73,0.343 µM,1.71,0.0187 µM,0.17,0.259,1.29 µM,0.483,17.4,0.0272 µM,0.361,0.0742,1.23,0.021,0.22,–,0.301
CSc1n(Cc2ccc3ccccc3c2)c(C)c[n+]1Cc1ccc2ccccc2c1,0.408 µM,2.1,1.13,2.93,0.436 µM,1.57,1.9 µM,3.77,0.938,2.47 µM,0.325,1.12,0.319 µM,1.12,0.311,1.3,0.571,2.31,1.11,3.01
COc1ccc2nc(NCN3C(=O)c4ccccc4C3=O)sc2c1,–,> 100,–,> 100,–,> 100,–,> 100,–,> 100 µM,–,> 100,–,> 100,–,> 100,–,> 100,–,> 100
Cc1cc([N+](=O)[O-])ccc1NS(=O)(=O)c1cc(Cl)ccc1Cl,1.92 µM,8.01,1.43,6.24,2.77 µM,36.6,3.18 µM,> 100,2.98,18.5 µM,2.02,7.55,3.13 µM,12.8,2.44,8.68,3.47,> 72.4,4.03,20.1
COc1cc(-c2csc(NC(=O)Nc3cc(C(F)(F)F)cc(C(F)(F)F)c3)n2)cc(OC)c1OC,1.93 µM,9.65,1.11,5.08,2.81 µM,10.5,2.78 µM,10.6,2.13,6.17 µM,–,–,2.43 µM,6.89,1.6,5,2.26,7.83,2.17,8.99
O=C(NCCN1CCC(O)CC1)c1cc2c(o1)C(=O)c1ccccc1C2=O,0.376 µM,1.85,0.17,0.34,0.177 µM,0.324,–,–,1.1,2.32 µM,0.176,0.391,0.282 µM,1.02,0.284,1.09,0.578,> 30.1,0.383,1.74
O=C(Nc1ccc2[nH]c(C(=O)N3CC(CCl)c4c3cc([N+](=O)[O-])c3ccccc43)cc2c1)c1cc2ccccc2o1 (stereo not given),> 1100 µM,> 1100,> 1100,> 1100,> 1100 µM,> 1100,–,–,–,> 1100 µM,> 1100,> 1100,33.2 µM,380,> 1100,> 1100,66.4,377,180,> 1100
c1cncc(-c2nc3ccccc3s2)c1,> 100 µM,> 100,50.7,> 100,> 100 µM,> 100,95.1 µM,> 100,64.7,> 100 µM,> 100,> 100,> 100 µM,> 100,> 100,> 100,–,–,73.7,> 100
